Patent US20210330611A1, “THERAPY FOR NEUROLOGICAL DISEASES/DISORDERS” (priority 2020, published 2021)
Where a name gives a salt, the structure may show the parent alone. Read-outs that look alike come from different tables or passages of the source.

Legend:
primary rat microglia [1] = tested on: primary rat microglia;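 as to Fibrin % cell toxicity: share of dead cells sized under 150 µm2 at 10 µM in fibrin-stimulated microglia HTS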
[2] = tested on: fibrin- and LPS-induced microglia activation; experiment: cells; format: cell-based, rat
primary rat microglia [3] = tested on: primary rat microglia; remark: listed apart in the source;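 as to Fibrin % cell toxicity: share of dead cells sized under 150 µm2 at 10 µM in fibrin-stimulated microglia HTS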
[4] = tested on: LPS-induced microglia activation; experiment: Image-based assay of LPS-induced microglia activation (HTS and dose response); format: cell-based, rat
[5] = tested on: fibrin-induced microglia activation; experiment: Image-based assay of fibrin-induced microglia activation (HTS and dose response); format: cell-based, rat; details: for inhibition at 10 µM: Rattus norvegicus, Microglia, read-out: Fibrin % inhibition
[6] = HTS of 1907 compounds, quadrant by fibrin and LPS inhibition
[7] = Rattus norvegicus, Microglia, primary microglia HTS, 10 μM, LPS-stimulated, cell size >800 μm^2 as marker of activation; read-out: LPS % inhibition
[8] = primary microglia HTS, 10 μM, fibrin-stimulated, cell size >800 μm^2 as marker of activation
[9] = classification by fibrin and LPS inhibition in HTS
[10] = Rattus norvegicus, Microglia, 48 h; read-out: LPS % inhibition
[11] = primary microglia HTS, fibrin stimulation, cell size >800 μm2 as marker of activation
[12] = Rattus norvegicus, Microglia, 48 h, read-out: LPS % inhibition
[13] = Rattus norvegicus, Microglia, read-out: LPS % inhibition
[14] = Rattus norvegicus, Microglia, primary microglia HTS, LPS stimulation, compounds at 10 μM; read-out: LPS % inhibition
[15] = primary microglia HTS, fibrin stimulation, compounds at 10 μM

Compound: COc1ccc(CN(CCN(C)C)c2ncccn2)cc1 [Thonzylamine Hydrochloride]
- Fibrin % cell toxicity (primary rat microglia [1]; rat): 0%
- Quadrant (FIG. 5b) [2, 6]: Q4
- LPS % cell toxicity (primary rat microglia [3]; rat): 0%
- inhibition at 10 µM [4, 7]: 6%
- inhibition at 10 µM [5, 8]: -21%

Compound: Cn1c(=O)c2[nH]cnc2n(C)c1=O [Aminophylline, Theophylline]
- Fibrin % cell toxicity (primary rat microglia [1]): 1%
- Quadrant (FIG. 5b) [2]: Q4
- LPS % cell toxicity (primary rat microglia [3]): 0%
- LPS % inhibition ([4]; 10 µM): 25%
- Fibrin % inhibition ([5]; 10 µM): 35%

Compound: CC(C)NCC(O)c1ccc(NS(C)(=O)=O)cc1 (stereo not shown) [Sotalol]
- Fibrin % cell toxicity (primary rat microglia [1]; rat): 1%
- Quadrant (FIG. 5b) [2, 9]: Q4
- LPS % cell toxicity (primary rat microglia [3]; rat): 0%
- inhibition at 10 µM [4, 10]: 6%
- inhibition at 10 µM [5, 11]: 6%

Compound: CNC[C@H](O)c1cccc(O)c1 [Phenylephrine]
- Fibrin % cell toxicity (primary rat microglia [1]; rat): 1%
- Quadrant (FIG. 5b) [2]: Q4
- LPS % cell toxicity (primary rat microglia [3]; rat): 0%
- inhibition at 10 µM [4, 12]: 31%
- inhibition at 10 µM [5]: 38%

Compound: COc1cc(C(=O)NS(=O)(=O)c2ccccc2C)ccc1Cc1cn(C)c2ccc(NC(=O)OC3CCCC3)cc12 [Zafirlukast]
- Fibrin % cell toxicity (primary rat microglia [1]; rat): 0%
- Quadrant (FIG. 5b) [2, 6]: Q4
- LPS % cell toxicity (primary rat microglia [3]; rat): 1%
- inhibition at 10 µM [4, 7]: 3%
- inhibition at 10 µM [5, 8]: -21%

Compound: NCCCCCC(=O)O [Aminocaproic Acid]
- Fibrin % cell toxicity (primary rat microglia [1]; rat): 1%
- Quadrant (FIG. 5b) [2]: Q4
- LPS % cell toxicity (primary rat microglia [3]; rat): 0%
- inhibition at 10 µM [4, 13]: 7%
- inhibition at 10 µM [5]: 5%

Compound: Cc1ncc([N+](=O)[O-])n1C [Dimetridazole]
- Fibrin % cell toxicity (primary rat microglia [1]; rat): 1%
- Quadrant (FIG. 5b) ([2]; classification by fibrin and LPS inhibition, HTS at 10 μM): Q4
- LPS % cell toxicity (primary rat microglia [3]; rat): 1%
- inhibition at 10 µM [4, 14]: 15%
- inhibition at 10 µM [5, 15]: -16%

Compound: O=C(O)CCCC[C@@H]1SC[C@@H]2NC(=O)N[C@@H]21 [Biotin]
- Fibrin % cell toxicity (primary rat microglia [1]; rat): 1%
- Quadrant (FIG. 5b) [2]: Q4
- LPS % cell toxicity (primary rat microglia [3]; rat): 0%
- inhibition at 10 µM [4, 13]: 12%
- inhibition at 10 µM [5]: 24%

Compound: c1ccc(C2CN3CCSC3=N2)cc1 (stereo not shown) [Tetramizole Hydrochloride]
- Fibrin % cell toxicity (primary rat microglia [1]; rat): 8%
- Quadrant (FIG. 5b) [2]: Q2
- LPS % cell toxicity (primary rat microglia [3]; rat): 5%
- inhibition at 10 µM [4, 13]: 112%
- inhibition at 10 µM [5]: 107%

Compound: Cc1c(-c2cnccn2)ssc1=S [Oltipraz]
- Fibrin % cell toxicity (primary rat microglia [1]; rat): 1%
- Quadrant (FIG. 5b) [2]: Q4
- LPS % cell toxicity (primary rat microglia [3]; rat): 0%
- inhibition at 10 µM [4, 12]: -1%
- inhibition at 10 µM [5]: -2%

Compound: N=C(N)NC(=O)c1nc(Cl)c(N)nc1N [Amiloride]
- Fibrin % cell toxicity (primary rat microglia [1]; rat): 1%
- Quadrant (FIG. 5b) ([2]; quadrant by fibrin and LPS inhibition, HTS at 10 μM): Q4
- LPS % cell toxicity (primary rat microglia [3]; rat): 0%
- inhibition at 10 µM [4, 14]: 7%
- inhibition at 10 µM [5, 15]: 20%

Compound: Fc1ccc([C@@H]2CCNC[C@H]2COc2ccc3c(c2)OCO3)cc1 [Paroxetine]
- Fibrin % cell toxicity (primary rat microglia [1]; rat): 1%
- Quadrant (FIG. 5b) [2, 9]: Q4
- LPS % cell toxicity (primary rat microglia [3]; rat): 0%
- inhibition at 10 µM [4, 10]: 15%
- inhibition at 10 µM [5, 11]: 38%

Compound: CC1=C(/C=C/C(C)=C/C=C/C(C)=C\C(=O)O)C(C)(C)CCC1 [Isotretinoin]
- Fibrin % cell toxicity (primary rat microglia [1]; rat): 13%
- Quadrant (FIG. 5b) ([2]; quadrant by fibrin and LPS inhibition in HTS of 1907 compounds): Q2
- LPS % cell toxicity (primary rat microglia [3]; rat): 1%
- inhibition at 10 µM ([4]; Rattus norvegicus, Microglia, 48 h, primary microglia HTS, LPS stimulation; increased cell size (>800 μm^2) as marker of activation; read-out: LPS % inhibition): 55%
- inhibition at 10 µM ([5]; primary microglia HTS, fibrin stimulation, increased cell size (>800 μm^2) as marker of activation): 112%

Compound: Oc1cccc2cccnc12 [Oxyquinoline]
- Fibrin % cell toxicity (primary rat microglia [1]; rat): 80%
- Quadrant (FIG. 5b) [2]: Q2
- LPS % cell toxicity (primary rat microglia [3]; rat): 57%
- inhibition at 10 µM [4, 13]: 116%
- inhibition at 10 µM [5]: 117%

Compound: CC=CC1=C(C(=O)O)N2C(=O)[C@@H](NC(=O)[C@H](N)c3ccc(O)cc3)[C@H]2SC1 [Cefprozil]
- Fibrin % cell toxicity (primary rat microglia [1]): 0%
- Quadrant (FIG. 5b) ([2]; primary HTS, 10 μM): Q4
- LPS % cell toxicity (primary rat microglia [3]): 0%
- LPS % inhibition ([4]; primary HTS, 10 μM, LPS-stimulated primary microglia): 14%
- Fibrin % inhibition ([5]; primary HTS, 10 μM, fibrin-stimulated primary microglia): 3%

Compound: CC(=O)N1CCN(c2ccc(OCC3COC(Cn4ccnc4)(c4ccc(Cl)cc4Cl)O3)cc2)CC1 (stereo not shown) [Ketoconazole]
- Fibrin % cell toxicity (primary rat microglia [1]; rat): 0%
- Quadrant (FIG. 5b) [2]: Q4
- LPS % cell toxicity (primary rat microglia [3]; rat): 0%
- inhibition at 10 µM [4, 12]: -1%
- inhibition at 10 µM [5]: -57%

Compound: COc1cc(NC(C)CCCN)c2ncccc2c1 (stereo not shown) [Primaquine]
- Fibrin % cell toxicity (primary rat microglia [1]; rat): 0%
- Quadrant (FIG. 5b) [2]: Q4
- LPS % cell toxicity (primary rat microglia [3]; rat): 0%
- inhibition at 10 µM [4, 12]: 7%
- inhibition at 10 µM [5]: -58%
